Target: T1, Human CaV2.2 channels (Homo sapiens, UniProt Q00975)
T1 construct: expressed in transfected cells; Kir2.3 also stably co-expressed
Test: Fluorescence assay for CaV2.2 channels using potassium depolarization to induce channel opening (FLIPR, Fluo 4)
Assay type: cell-based
Conditions: 30 mM KCl assay buffer (inactivated channel state), HEK293 cells; for Activity Category: %-Inhib (CaV2.2) @3 μM @30 mM KCl: 3 μM test compound; for inhibition at 3 µM: HEK293, 3 μM test compound, read-out: Activity Category: %-Inhib (CaV2.2) @3 μM @30 mM KCl
Summary of the method: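 HEK293 cells stably co-expressing human CaV2.2 with α2δ and β subunits plus Kir2.3, Fluo-4 loaded; compounds preincubated 15 min at 25 °C in 1 mM or 30 mM KCl buffer (inactivated state), pH 7.4. Depolarized by KCl addition; baseline-normalized peak fluorescence (ex 480/em 535 nm) gave inhibition.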

T1 sequence (Q00975 whole entry): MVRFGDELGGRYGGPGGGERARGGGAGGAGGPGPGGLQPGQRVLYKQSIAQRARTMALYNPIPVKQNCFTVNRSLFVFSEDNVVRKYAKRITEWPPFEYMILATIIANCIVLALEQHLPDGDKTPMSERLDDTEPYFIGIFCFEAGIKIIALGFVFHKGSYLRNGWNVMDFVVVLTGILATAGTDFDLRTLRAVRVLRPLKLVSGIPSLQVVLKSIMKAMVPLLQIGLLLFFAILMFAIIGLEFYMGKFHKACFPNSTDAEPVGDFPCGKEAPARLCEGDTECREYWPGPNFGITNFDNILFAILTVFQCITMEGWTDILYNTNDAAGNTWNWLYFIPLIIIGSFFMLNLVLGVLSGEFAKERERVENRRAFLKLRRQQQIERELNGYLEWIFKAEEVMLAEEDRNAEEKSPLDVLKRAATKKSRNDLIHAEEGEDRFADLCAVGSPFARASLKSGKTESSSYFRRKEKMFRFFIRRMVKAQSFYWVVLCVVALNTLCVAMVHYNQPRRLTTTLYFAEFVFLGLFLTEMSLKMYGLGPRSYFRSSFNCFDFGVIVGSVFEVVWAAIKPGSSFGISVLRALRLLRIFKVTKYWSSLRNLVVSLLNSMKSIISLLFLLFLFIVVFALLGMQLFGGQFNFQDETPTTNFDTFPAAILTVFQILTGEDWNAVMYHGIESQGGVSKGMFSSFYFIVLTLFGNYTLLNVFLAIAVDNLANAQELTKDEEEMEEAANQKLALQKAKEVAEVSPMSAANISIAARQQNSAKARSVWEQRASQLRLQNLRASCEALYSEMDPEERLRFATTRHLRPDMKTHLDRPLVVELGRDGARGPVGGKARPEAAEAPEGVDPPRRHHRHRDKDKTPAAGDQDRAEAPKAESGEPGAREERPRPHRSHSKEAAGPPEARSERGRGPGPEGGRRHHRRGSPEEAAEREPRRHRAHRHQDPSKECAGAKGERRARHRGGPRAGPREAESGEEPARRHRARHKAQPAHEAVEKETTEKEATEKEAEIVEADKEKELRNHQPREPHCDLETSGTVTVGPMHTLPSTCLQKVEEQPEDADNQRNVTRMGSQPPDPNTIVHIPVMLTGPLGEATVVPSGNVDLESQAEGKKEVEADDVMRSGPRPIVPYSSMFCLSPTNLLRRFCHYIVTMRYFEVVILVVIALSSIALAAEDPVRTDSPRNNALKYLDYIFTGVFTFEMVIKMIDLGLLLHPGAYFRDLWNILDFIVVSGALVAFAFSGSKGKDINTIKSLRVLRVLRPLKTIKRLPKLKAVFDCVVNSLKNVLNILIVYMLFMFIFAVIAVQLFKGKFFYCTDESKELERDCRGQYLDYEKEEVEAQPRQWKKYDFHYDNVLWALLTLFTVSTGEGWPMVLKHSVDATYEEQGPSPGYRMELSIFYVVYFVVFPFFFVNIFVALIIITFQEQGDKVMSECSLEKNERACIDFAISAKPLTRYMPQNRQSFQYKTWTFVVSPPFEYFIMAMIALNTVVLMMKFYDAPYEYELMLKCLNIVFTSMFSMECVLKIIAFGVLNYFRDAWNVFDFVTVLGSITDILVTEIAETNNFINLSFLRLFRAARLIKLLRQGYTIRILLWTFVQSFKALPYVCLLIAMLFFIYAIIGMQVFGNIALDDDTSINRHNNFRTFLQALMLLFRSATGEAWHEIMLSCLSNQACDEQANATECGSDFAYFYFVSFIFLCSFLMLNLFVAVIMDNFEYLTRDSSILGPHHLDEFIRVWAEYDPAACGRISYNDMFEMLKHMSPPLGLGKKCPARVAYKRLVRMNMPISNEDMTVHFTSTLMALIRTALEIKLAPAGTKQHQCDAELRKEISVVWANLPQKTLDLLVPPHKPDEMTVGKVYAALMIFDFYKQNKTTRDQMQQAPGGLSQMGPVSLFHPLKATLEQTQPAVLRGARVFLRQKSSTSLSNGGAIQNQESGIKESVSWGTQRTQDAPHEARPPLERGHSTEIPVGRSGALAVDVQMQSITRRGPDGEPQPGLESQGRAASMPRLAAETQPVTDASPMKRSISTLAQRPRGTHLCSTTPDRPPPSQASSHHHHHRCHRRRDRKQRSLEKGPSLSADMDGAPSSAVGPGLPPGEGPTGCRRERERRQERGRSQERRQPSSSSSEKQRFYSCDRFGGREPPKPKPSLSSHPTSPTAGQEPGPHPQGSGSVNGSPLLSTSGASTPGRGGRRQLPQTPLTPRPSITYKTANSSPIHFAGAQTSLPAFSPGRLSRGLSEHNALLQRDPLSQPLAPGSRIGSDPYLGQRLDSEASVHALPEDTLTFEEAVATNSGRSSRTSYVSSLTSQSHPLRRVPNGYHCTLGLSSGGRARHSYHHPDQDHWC

| SMILES | Activity Category: %-Inhib (CaV2.2) @3 μM @30 mM KCl | inhibition at 3 µM [%] |
| --- | --- | --- |
| CC1(S(=O)(=O)c2cccc(C(F)(F)F)c2)CCOC(c2ccccc2S(C)(=O)=O)C1 (stereo not drawn) [SC-223, 4-Methyl-2-(2-methylsulfonyl-phenyl)-4-[[3-(trifluoromethyl)phenyl]sulfonyl]-tetrahydro-pyran] | C (%-Inhibition >40% up to ≦75%) | – |
| Cc1cc(Cl)ccc1C1CC(C)(S(=O)(=O)c2cccc(C(F)(F)F)c2)CCO1 (stereo not drawn) [SC-224, 2-(4-Chloro-2-methyl-phenyl)-4-methyl-4-[[3-(trifluoromethyl)phenyl]sulfonyl]-tetrahydro-pyran] | – | 75 to 95 |
| Cc1cc(Cl)ccc1C1CC(C)(S(=O)(=O)c2cccc(C(F)(F)F)c2)CCO1 (stereo not drawn) [SC-225, 2-(4-Chloro-2-methyl-phenyl)-4-methyl-4-[[3-(trifluoromethyl)phenyl]sulfonyl]-tetrahydro-pyran] | A (%-Inhibition >95%) | – |
| COc1cc(C2CC(C)(S(=O)(=O)c3cccc(C(F)(F)F)c3)CCO2)ccc1Cl (stereo not drawn) [SC-226, 2-(4-Chloro-3-methoxy-phenyl)-4-methyl-4-[[3-(trifluoromethyl)phenyl]sulfonyl]-tetrahydro-pyran] | – | > 95 |
| CC1(S(=O)(=O)c2cccc(C(F)(F)F)c2)CCOC(c2ccc(F)c(Cl)c2)C1 (stereo not drawn) [SC-228, 2-(3-Chloro-4-fluoro-phenyl)-4-methyl-4-[[3-(trifluoromethyl)phenyl]sulfonyl]-tetrahydro-pyran] | – | > 95 |
| CCC1(S(=O)(=O)c2cccc(C(F)(F)F)c2)CCOC(c2ccc(Cl)cc2)C1 (stereo not drawn) [SC-230, 2-(4-Chlorophenyl)-4-ethyl-4-[[3-(trifluoromethyl)phenyl]sulfonyl]-tetrahydro-pyran] | – | > 95 |
| CCC1(S(=O)(=O)c2cccc(C(F)(F)F)c2)CCOC(c2ccc(Cl)cc2)C1 (stereo not drawn) [SC-231, 2-(4-Chlorophenyl)-4-ethyl-4-[[3-(trifluoromethyl)phenyl]sulfonyl]-tetrahydro-pyran] | B (%-Inhibition >75% up to ≦95%) | – |
| CC1(S(=O)(=O)c2cccc(C(F)(F)F)c2)CCOC(c2ccc(C(F)(F)F)cc2S(C)(=O)=O)C1 (stereo not drawn) [SC-232, 4-Methyl-2-[2-methylsulfonyl-4-(trifluoromethyl)-phenyl]-4-[[3-(trifluoromethyl)phenyl]sulfonyl]-tetrahydro-pyran] | – | > 95 |
| CC1(S(=O)(=O)c2cccc(C(F)(F)F)c2)CCOC(c2ccc(S(C)(=O)=O)c(C(F)(F)F)c2)C1 (stereo not drawn) [SC-235, 4-Methyl-2-[4-methylsulfonyl-3-(trifluoromethyl)-phenyl]-4-[[3-(trifluoromethyl)phenyl]sulfonyl]-tetrahydro-pyran] | – | > 95 |
| CC1(S(=O)(=O)c2cccc(C(F)(F)F)c2)CCOC(c2ccc(Cl)c(S(C)(=O)=O)c2)C1 (stereo not drawn) [SC-237, 2-(4-Chloro-3-methylsulfonyl-phenyl)-4-methyl-4-[[3-(trifluoromethyl)phenyl]sulfonyl]-tetrahydro-pyran] | – | > 95 |
| CC1(S(=O)(=O)c2cccc(C(F)(F)F)c2)CCOC(c2ccc(S(C)(=O)=O)c(Cl)c2)C1 (stereo not drawn) [SC-239, 2-(3-Chloro-4-methylsulfonyl-phenyl)-4-methyl-4-[[3-(trifluoromethyl)phenyl]sulfonyl]-tetrahydro-pyran] | – | > 95 |
| CC1(S(=O)(=O)c2cccc(C(F)(F)F)c2)CCOC(c2ccc(S(C)(=O)=O)cc2F)C1 (stereo not drawn) [SC-241, 2-(2-Fluoro-4-methylsulfonyl-phenyl)-4-methyl-4-[[3-(trifluoromethyl)phenyl]sulfonyl]-tetrahydro-pyran] | – | > 95 |
| CC1(S(=O)(=O)c2cccc(C(F)(F)F)c2)CCOC(c2cc(Cl)cc(S(C)(=O)=O)c2)C1 (stereo not drawn) [SC-243, 2-(3-Chloro-5-methylsulfonyl-phenyl)-4-methyl-4-[[3-(trifluoromethyl)phenyl]sulfonyl]-tetrahydro-pyran] | – | > 95 |
| CC1(S(=O)(=O)c2cccc(C(F)(F)F)n2)CCOC(c2ccc(S(C)(=O)=O)c(F)c2)C1 (stereo not drawn) [SC-245, 2-[[2-(3-Fluoro-4-methylsulfonyl-phenyl)-4-methyl-tetrahydro-pyran-4-yl]sulfonyl]-6-(trifluoromethyl)-pyridine] | – | 40 to 75 |
| CC1(S(=O)(=O)c2cccc(C(F)(F)F)c2)CCOC(c2cc(S(C)(=O)=O)ccc2Cl)C1 (stereo not drawn) [SC-247, 2-(2-Chloro-5-methylsulfonyl-phenyl)-4-methyl-4-[[3-(trifluoromethyl)phenyl]sulfonyl]-tetrahydro-pyran] | – | > 95 |
| CC1(S(=O)(=O)c2cccc(C(F)(F)F)c2)CCOC(c2ccc(C(F)(F)F)c(S(C)(=O)=O)c2)C1 (stereo not drawn) [SC-249, 4-Methyl-2-[3-methylsulfonyl-4-(trifluoromethyl)-phenyl]-4-[[3-(trifluoromethyl)phenyl]sulfonyl]-tetrahydro-pyran] | – | > 95 |
| CC1(S(=O)(=O)c2cccc(C(F)(F)F)c2)CCOC(c2ccc(C#N)cc2S(C)(=O)=O)C1 (stereo not drawn) [SC-251, 3-Methylsulfonyl-4-[4-methyl-4-[[3-(trifluoromethyl)phenyl]sulfonyl]-tetrahydro-pyran-2-yl]-benzonitrile] | – | > 95 |
| CC1(S(=O)(=O)c2cccc(C(F)(F)F)c2)CCOC(c2ccc(C#N)cc2S(C)(=O)=O)C1 (stereo not drawn) [SC-252, 3-Methylsulfonyl-4-[4-methyl-4-[[3-(trifluoromethyl)phenyl]sulfonyl]-tetrahydro-pyran-2-yl]-benzonitrile] | B (%-Inhibition >75% up to ≦95%) | – |
| Cc1cc(S(C)(=O)=O)ccc1C1CC(C)(S(=O)(=O)c2cccc(C(F)(F)F)c2)CCO1 (stereo not drawn) [SC-253, 4-Methyl-2-(2-methyl-4-methylsulfonyl-phenyl)-4-[[3-(trifluoromethyl)phenyl]sulfonyl]-tetrahydro-pyran] | – | 75 to 95 |
| Cc1cc(S(C)(=O)=O)ccc1C1CC(C)(S(=O)(=O)c2cccc(C(F)(F)F)c2)CCO1 (stereo not drawn) [SC-254, 4-Methyl-2-(2-methyl-4-methylsulfonyl-phenyl)-4-[[3-(trifluoromethyl)phenyl]sulfonyl]-tetrahydro-pyran] | A (%-Inhibition >95%) | – |
| CC1(S(=O)(=O)c2cccc(C(F)(F)F)c2)CCOC(c2ccc(S(C)(=O)=O)cc2C(F)(F)F)C1 (stereo not drawn) [SC-255, 4-Methyl-2-[4-methylsulfonyl-2-(trifluoromethyl)-phenyl]-4-[[3-(trifluoromethyl)phenyl]sulfonyl]-tetrahydro-pyran] | – | > 95 |
| CC1(S(=O)(=O)c2cccc(C(F)(F)F)c2)CCOC(c2cc(C#N)cc(S(C)(=O)=O)c2)C1 (stereo not drawn) [SC-257, 3-Methylsulfonyl-5-[4-methyl-4-[[3-(trifluoromethyl)phenyl]sulfonyl]-tetrahydro-pyran-2-yl]-benzonitrile] | – | 75 to 95 |
| CC1(S(=O)(=O)c2cccc(C(F)(F)F)c2)CCOC(c2ccc3c(c2)OC(F)(F)O3)C1 (stereo not drawn) [SC-259, 2,2-Difluoro-5-[4-methyl-4-[[3-(trifluoromethyl)phenyl]sulfonyl]-tetrahydro-pyran-2-yl]-1,3-benzodioxole] | – | > 95 |
| CC1(S(=O)(=O)c2cccc(C(F)(F)F)c2)CCOC(c2ccc(C#N)c(S(C)(=O)=O)c2)C1 (stereo not drawn) [SC-261, 2-Methylsulfonyl-4-[4-methyl-4-[[3-(trifluoromethyl)phenyl]sulfonyl]-tetrahydro-pyran-2-yl]-benzonitrile] | – | > 95 |

— patent publication US9896440B2, “Aryl substituted heterocyclyl sulfones” (GRÜNENTHAL GMBH, priority 2014, dated 2018)
